These results are taken from PMC12263422, “Cryo-EM structure of the human THIK-1 K2P K^+ channel reveals a lower Y gate regulated by lipids and anesthetics” (Nature Structural & Molecular Biology, 2025).

Holding throughout (format): cell-based
In one test the target is T1, THIK-1 Y273A/I139A (Homo sapiens, UniProt Q9HB14, I139A/Y273A).
T1 construct: expressed in transfected cells; host or cells: Xenopus oocytes (mRNA injection)
T1 sequence (Q9HB14 1-408 I139A/Y273A): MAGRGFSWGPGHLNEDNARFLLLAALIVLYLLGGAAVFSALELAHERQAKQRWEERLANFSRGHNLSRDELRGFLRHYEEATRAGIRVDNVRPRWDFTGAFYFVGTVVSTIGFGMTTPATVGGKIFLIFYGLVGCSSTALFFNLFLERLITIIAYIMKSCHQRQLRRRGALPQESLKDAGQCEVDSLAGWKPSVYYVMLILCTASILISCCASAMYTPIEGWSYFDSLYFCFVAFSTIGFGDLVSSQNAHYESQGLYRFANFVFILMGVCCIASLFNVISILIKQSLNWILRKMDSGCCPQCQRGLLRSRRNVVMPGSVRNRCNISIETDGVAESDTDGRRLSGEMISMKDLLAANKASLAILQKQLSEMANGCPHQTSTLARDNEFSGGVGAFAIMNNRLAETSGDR
Description: Inside-out excised patch recordings, oocytes, THIK-1 Y273A/I139A double mutant. Conditions: for τ of 1 mM TPenA block / τ of 1 mM TPenA release: I139A/Y273A; for Normalized currents: THIK-1 Y273A/I139A. The source says:
Human K2P13.1 THIK-1 (GenBank accession number: NM_022054) and human K2P12.1 THIK-2 (NM_022055.1) were used in this study. For functional expression studies, the respective K^+ channel subtype coding sequences were subcloned into the oocyte expression vector pSGEM or the dual-purpose expression vector pFAW[41] and verified by sequencing. All mutant channels were obtained by site-directed mutagenesis and verified by sequencing. To increase surface expression and macroscopic currents, measurements of THIK-2 channels used a mutated ER retention motif, (R11A R12A R14A R15A R16A; THIK-2*)[20]. Vector DNA was linearized with NheI or MluI, and mRNA was synthesized in vitro using the SP6 or T7 AmpliCap Max High Yield Message Maker Kit (Cellscript, USA) or HiScribe T7 ARCA mRNA Kit (New England Biolabs).
Two-electrode voltage–clamp (TEVC) studies were performed in Xenopus oocytes. All animal use conformed to the Guide for the Care and Use of Laboratory Animals (NIH Publication 85–23), and all experiments using Xenopus toads were approved by the local ethics panels. Oocytes were stored at 17 °C in ND96 recording solution composed of (in mM): 96 NaCl, 2 KCl, 1.8 CaCl2, 1 MgCl2, 5 HEPES (pH 7.5 adjusted with NaOH and HCl), supplemented with Na-pyruvate (275 mg L^–1), theophylline (90 mg L^–1) and gentamicin (50 mg L^–1). Oocytes were injected with 1 ng mRNA for WT or mutant channels, and were incubated for 24–48 h at 17 °C. Two-electrode voltage clamp recordings were then performed as previously described[42],[43]. For macroscopic patch–clamp measurements, oocytes were obtained as described above incubated at 17 °C in a solution containing (mM): 54 NaCl, 30 KCl, 2.4 NaHCO3, 0.82 MgSO4 ×7 H2O, 0.41 CaCl2, 0.33 Ca(NO3)2 ×4 H2O and 7.5 TRIS (pH 7.4 adjusted with NaOH and HCl) for 1–4 days before use. Excised patch recordings in inside-out configuration conditions were performed at room temperature. Patch pipettes were made from thick-walled borosilicate glass GB 200TF-8P (Science Products), had resistances of 0.2–0.5 MΩ (tip diameter, 10–25 µm) and filled with a pipette solution (in mM): 120 KCl, 10 HEPES and 3.6 CaCl2 (pH 7.4 adjusted with KOH and HCl). Intracellular bath solutions and compounds were applied to the cytoplasmic side of excised patches for the various K^+ channels through a gravity flow multi-barrel pipette system. The intracellular solution had the following composition (in mM): 120 KCl, 10 HEPES, 2 EGTA and 1 pyrophosphate (pH adjusted with KOH and HCl). Currents were recorded with an EPC10 amplifier (HEKA Electronics) and sampled at 10 kHz or higher, with filtering set to 3 kHz (–3 dB) or higher, as appropriate for sampling rate. For measurements of GPCR activation, whole-cell currents were recorded for THIK-1 in transiently transfected HEK-293 cells. Cells were stimulated by a ramp protocol between −100 and +60 mV (holding potential, −80 mV). The pipette solution was composed of (in mM): 140 KCl, 2 MgCl2, 1 CaCl2, 2.5 EGTA and 10 HEPES (pH 7.3 adjusted with KOH and HCl). The extracellular bath solution had the following composition (in mM): 135 NaCl, 5 KCl, 2 MgCl2, 2 CaCl2, 10 glucose and 10 HEPES pH (pH 7.3 adjusted with NaOH and HCl). Oxotremorine M (Oxo-M) was added to extracellular bath solution to obtain the final concentration. Single-channel currents were recorded with an Axopatch 200B amplifier through a Digidata 1440A digitizer (Molecular Devices). Data were filtered at 2 kHz and recorded at a 200-kHz sampling rate with the program Clampex (Molecular Devices). Pipette solution and bath solution for cell-attached recordings contained (in mM): 140 KCl, 2 MgCl2, 1 CaCl2 and 10 HEPES (pH 7.4 adjusted with KOH and HCl). For inside-out recordings, the bath solution contained (in mM): 140 KCl, 2 MgCl2, 1 CaCl2 and 10 HEPES (pH 7.2 adjusted with KOH and HCl). All experiments were conducted at room temperature. […]

The next test concerns the target T2, THIK-1 Y102A (Homo sapiens, UniProt Q9HB14, Y102A).
T2 construct: expressed in transfected cells; host or cells: Xenopus oocytes (mRNA injection)
Description: Inside-out excised patch recordings, oocytes, THIK-1 Y102A mutant (lipid activation). Conditions: read-out: Linoleic acid EC50. From the text:
Supplement 41594_2025_1497_MOESM2_ESM.xlsx, sheet "ExtData_Fig_S5f" | column: Linoleic acid EC50 (µM); Y102A

For another test, the target named is T3, THIK-1 N261A (Homo sapiens, UniProt Q9HB14, N261A).
T3 construct: expressed in transfected cells; host or cells: Xenopus oocytes (mRNA injection)
T3 sequence (Q9HB14 whole entry N261A): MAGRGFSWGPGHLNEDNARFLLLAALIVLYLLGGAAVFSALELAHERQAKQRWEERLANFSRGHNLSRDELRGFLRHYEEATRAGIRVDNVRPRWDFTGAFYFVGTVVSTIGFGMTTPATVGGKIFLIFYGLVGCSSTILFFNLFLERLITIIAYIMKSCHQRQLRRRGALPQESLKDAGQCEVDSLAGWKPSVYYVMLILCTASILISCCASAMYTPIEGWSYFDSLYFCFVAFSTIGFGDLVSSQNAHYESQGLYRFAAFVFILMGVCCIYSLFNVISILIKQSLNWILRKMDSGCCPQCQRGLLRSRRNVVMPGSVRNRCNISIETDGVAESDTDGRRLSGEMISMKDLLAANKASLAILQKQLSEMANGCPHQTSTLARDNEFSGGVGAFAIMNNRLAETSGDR
The experiment in a line: Inside-out excised patch recordings, oocytes, THIK-1 N261A mutant (lipid activation). As to conditions: read-out: Linoleic acid EC50. From the text:
Supplement 41594_2025_1497_MOESM2_ESM.xlsx, sheet "ExtData_Fig_S5f" | column: Linoleic acid EC50 (µM); N261A

pEC50: −log10 of the molar value. Where “and” joins values, the source holds several entries; their conditions need not be identical. Identical values can stand only once. Like-named read-outs stand apart in the source and are kept apart here.

T2 sequence (Q9HB14 whole entry Y102A): as the sequence (Q9HB14 whole entry N261A) above, with Y102A, A261N counted along it

For the molecule `CCCCC[N+](CCCCC)(CCCCC)CCCCC` [TPenA, tetrapentylammonium], the “τ of 1 mM TPenA block” value is 0.121 s and 0.062 s and 0.131 s and 0.164 s and 0.120 s and 0.094 s and 0.191 s and 0.111 s and 0.116 s and 0.183 s and 0.093 s and 0.084 s and 0.142 s and 0.070 s and 0.095 s and 0.042 s on THIK-1 Y273A/I139A (individual recordings); 0.11 s at THIK-1 Y273A/I139A (mean). Besides, the “τ of 1 mM TPenA release” value at THIK-1 Y273A/I139A (individual recordings) was 0.960 s and 0.559 s and 1.130 s and 0.565 s and 0.799 s and 0.283 s and 0.914 s and 0.634 s and 0.842 s and 0.928 s and 0.662 s and 0.571 s and 0.449 s and 0.371 s and 1.055 s; on THIK-1 Y273A/I139A (mean) it was 0.71 s. Further, the Normalized currents at THIK-1 Y273A/I139A (TPenA 0.1 µM) amounted to 1.00; at THIK-1 Y273A/I139A (TPenA 1 µM), 0.95; on THIK-1 Y273A/I139A (TPenA 4 µM), 0.90; at THIK-1 Y273A/I139A (TPenA 15.6 µM) it was 0.68; on THIK-1 Y273A/I139A (TPenA 62.5 µM) it was 0.47; on THIK-1 Y273A/I139A (TPenA 250 µM), 0.22. For the same molecule, the Normalized currents on THIK-1 Y273A/I139A (TPenA 1000 µM) is 0.08; at THIK-1 Y273A/I139A (TPenA 4000 µM), 0.03.

Take `CCCCC/C=C\C/C=C\CCCCCCCC(=O)O` [linoleic acid]: the pEC50 is 3.98 and 3.88 and 4.24 and 4.22 and 3.53 and 4.33 and 4.31 and 4.44 at THIK-1 Y102A (individual recordings); 4.03 on THIK-1 Y102A (mean); 4.03 and 3.71 and 4.40 and 4.04 and 3.99 and 3.86 at THIK-1 N261A (individual recordings); 3.96 on THIK-1 N261A (mean).
